Laboratory results published in the supplement of paper PMC10307832.

Tests used:
Experiment in all cases: relative viability (nuclei count vs DMSO), 5 days (fraction); higher = more cells survive
DM3189 + Lapatinib = compound: C1CN(CCN1)C2=CC=C(C=C2)C3=CN4C(=C(C=N4)C5=CC=NC6=CC=CC=C56)N=C3 [DM3189] + CS(=O)(=O)CCNCc1ccc(-c2ccc3ncnc(Nc4ccc(OCc5cccc(F)c5)c(Cl)c4)c3c2)o1 [Lapatinib] (partner 2 µM)
Summary of the method: (§1)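 Cells from lung cancer lines were seeded into 1536-well plates and, one day later, dosed by pin tool. Treatments were either a single drug or a fixed dose of an anchor drug with five library-drug doses (not always all listed) in √10 steps. After 5 days, nuclei were stained in a one-step fixation (final 0.05% Triton X-100, 1% formaldehyde, 1 ug/ml Hoechst) and counted on 4× images, and relative viability is the treated-to-vehicle nuclei ratio, as the median of duplicate plates.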

DM3189 + Pemetrexed = compound: C1CN(CCN1)C2=CC=C(C=C2)C3=CN4C(=C(C=N4)C5=CC=NC6=CC=CC=C56)N=C3 [DM3189] + Nc1nc2[nH]cc(CCc3ccc(C(=O)N[C@@H](CCC(=O)O)C(=O)O)cc3)c2c(=O)[nH]1 [Pemetrexed] (partner 0.2 µM)
Summary of the method: as §1

DM3189 + Bortezomib = compound: C1CN(CCN1)C2=CC=C(C=C2)C3=CN4C(=C(C=N4)C5=CC=NC6=CC=CC=C56)N=C3 [DM3189] + CC(C)C[C@H](NC(=O)[C@H](Cc1ccccc1)NC(=O)c1cnccn1)B(O)O [Bortezomib] (partner 0.002 µM)
Summary of the method: as §1

DM3189 + Palbociclib = compound: C1CN(CCN1)C2=CC=C(C=C2)C3=CN4C(=C(C=N4)C5=CC=NC6=CC=CC=C56)N=C3 [DM3189] + CC(=O)c1c(C)c2cnc(Nc3ccc(N4CCNCC4)cn3)nc2n(C2CCCC2)c1=O [Palbociclib] (partner 0.5 µM)
Summary of the method: as §1

DM3189 + Pictilisib = compound: C1CN(CCN1)C2=CC=C(C=C2)C3=CN4C(=C(C=N4)C5=CC=NC6=CC=CC=C56)N=C3 [DM3189] + CS(=O)(=O)N1CCN(Cc2cc3nc(-c4cccc5[nH]ncc45)nc(N4CCOCC4)c3s2)CC1 [Pictilisib] (partner 1 µM)
Summary of the method: as §1

Row | Cell Line | relative viability (DM3189 + Lapatinib; first compound 0.08 µM) | relative viability (DM3189 + Lapatinib; first compound 0.253 µM) | relative viability (DM3189 + Lapatinib; first compound 0.8 µM) | relative viability (DM3189 + Lapatinib; first compound 2.53 µM) | relative viability (DM3189 + Pemetrexed; first compound 0.08 µM) | relative viability (DM3189 + Pemetrexed; first compound 0.253 µM) | relative viability (DM3189 + Pemetrexed; first compound 0.8 µM) | relative viability (DM3189 + Bortezomib; first compound 0.08 µM) | relative viability (DM3189 + Bortezomib; first compound 0.253 µM) | relative viability (DM3189 + Bortezomib; first compound 0.8 µM) | relative viability (DM3189 + Bortezomib; first compound 2.53 µM) | relative viability (DM3189 + Palbociclib; first compound 0.08 µM) | relative viability (DM3189 + Palbociclib; first compound 0.253 µM) | relative viability (DM3189 + Palbociclib; first compound 0.8 µM) | relative viability (DM3189 + Pictilisib; first compound 0.08 µM) | relative viability (DM3189 + Pictilisib; first compound 0.253 µM) | relative viability (DM3189 + Pictilisib; first compound 0.8 µM) | relative viability (DM3189 + Pictilisib; first compound 2.53 µM) | relative viability (DM3189 + Pemetrexed; first compound 2.53 µM) | relative viability (DM3189 + Palbociclib; first compound 2.53 µM)
1 | NCI-H1666 | 0.789 | 0.736 | 0.51 | 0.712 | 1 | 0.818 | 0.844 | 0.853 | 0.783 | 0.898 | 0.91 | 0.553 | 0.637 | 0.656 | 0.439 | 0.595 | 0.508 | 0.437 | – | –
2 | NCI-H1734 | 1.07 | 0.987 | 0.961 | 0.939 | 0.438 | 0.4 | 0.353 | 1.02 | 0.982 | 0.778 | 0.775 | 0.34 | 0.344 | 0.283 | 0.541 | 0.417 | 0.442 | 0.383 | 0.352 | 0.294
3 | NCI-H1755 | 1.07 | 0.937 | 0.811 | 0.936 | 0.418 | 0.555 | 0.502 | 0.95 | 0.878 | 0.807 | 0.505 | 0.467 | 0.431 | 0.403 | 0.51 | 0.417 | 0.334 | 0.399 | 0.395 | 0.396
4 | NCI-H1792 | 0.973 | 0.919 | 0.674 | 0.431 | 0.986 | 0.98 | 0.645 | 0.838 | 0.926 | 0.852 | 0.656 | 0.569 | 0.675 | 0.716 | 0.228 | 0.248 | 0.165 | 0.271 | 0.616 | 0.609
5 | NCI-H1915 | 1 | 0.867 | 0.705 | 0.737 | 0.468 | 0.471 | 0.454 | 1.04 | 0.904 | 0.83 | 0.88 | 0.506 | 0.47 | 0.437 | 0.974 | 0.915 | 0.646 | 0.891 | 0.448 | 0.481
